# US20220282217A1, “COMPOSITIONS AND METHODS FOR PREPARING T CELL COMPOSITIONS AND USES THEREOF” (priority 2019, published 2022)
# Where a SMILES comes first, the peptide text is derived from it.
# Molecular target: HLA-B07.02 (Homo sapiens, UniProt P01889)
# Test: Class I MHC peptide binding affinity (displacement of radiolabeled reference peptide)
# Settings: not given
row,SMILES,IC50 [nM]
1,CC(C)[C@H](NC(=O)[C@H](C)NC(=O)[C@@H]1CCCN1C(=O)[C@@H](NC(=O)[C@H](CCCNC(=N)N)NC(=O)[C@H](C)NC(=O)[C@@H]1CCCN1C(=O)[C@@H]1CCCN1C(=O)CN)C(C)C)C(=O)O (H-GPPARVPAV-OH; N-terminus and C-terminus assumed),221

# Same assay, conditions: Allele B07.02; read-out: Observed Affinity (IC50; (nM))
row,SMILES,IC50 [nM]
1,CC(C)C[C@H](NC(=O)[C@@H]1CCCN1C(=O)[C@@H](N)CCCNC(=N)N)C(=O)N[C@@H](CCC(N)=O)C(=O)N[C@H](C(=O)N[C@@H](Cc1c[nH]cn1)C(=O)N[C@H](C(=O)N[C@@H](CC(C)C)C(=O)N1CCC[C@H]1C(=O)N[C@@H](CCC(=O)O)C(=O)O)C(C)C)[C@@H](C)O (H-RPLQTHVLPE-OH; N-terminus and C-terminus assumed),2530
2,C[C@H](NC(=O)[C@H](C)NC(=O)[C@H](CCCNC(=N)N)NC(=O)[C@@H]1CCCN1C(=O)[C@@H]1CCCN1C(=O)[C@H](CCCNC(=N)N)NC(=O)[C@@H]1CCCN1C(=O)[C@@H]1CCCN1)C(=O)N[C@@H](CS)C(=O)O (H-PPRPPRAAC-OH; N-terminus and C-terminus assumed),32.8
3,CSCC[C@H](NC(=O)[C@H](CCC(=O)O)NC(=O)[C@H](CC(C)C)NC(=O)[C@H](CC(C)C)NC(=O)[C@H](CC(C)C)NC(=O)CNC(=O)[C@H](Cc1ccc(O)cc1)NC(=O)[C@H](CC(C)C)NC(=O)[C@@H]1CCCN1C(=O)[C@@H](N)C(C)C)C(=O)O (H-VPLYGLLLEM-OH; N-terminus and C-terminus assumed),27.9

# The remaining lines, values ahead:
row,IC50 [nM],SMILES
1,1330,CC(C)C[C@H](NC(=O)[C@H](C)NC(=O)[C@H](CC(C)C)NC(=O)[C@H](Cc1c[nH]cn1)NC(=O)[C@@H]1CCCN1C(=O)[C@H](CCC(=O)O)NC(=O)[C@@H]1CCCN1C(=O)[C@H](CC(C)C)NC(=O)[C@@H](NC(=O)[C@@H](N)Cc1c[nH]cn1)C(C)C)C(=O)O [HVLPEPHLAL] (H-HVLPEPHLAL-OH; N-terminus and C-terminus assumed)
2,826,CC(C)C[C@H](NC(=O)[C@H](CC(C)C)NC(=O)[C@H](Cc1c[nH]cn1)NC(=O)CNC(=O)[C@H](CCC(N)=O)NC(=O)[C@H](CC(N)=O)NC(=O)[C@H](CCC(N)=O)NC(=O)[C@@H](NC(=O)[C@@H](N)CCCNC(=N)N)C(C)C)C(=O)O (H-RVQNQGHLL-OH; N-terminus and C-terminus assumed)
3,79.5,CC(C)C[C@H](NC(=O)CNC(=O)[C@H](CO)NC(=O)[C@H](CC(=O)O)NC(=O)[C@H](CCCCN)NC(=O)[C@H](CO)NC(=O)[C@H](Cc1ccc(O)cc1)NC(=O)[C@H](C)NC(=O)[C@@H]1CCCN1C(=O)[C@@H](N)Cc1ccc(O)cc1)C(=O)O (H-YPAYSKDSGL-OH; N-terminus and C-terminus assumed)
4,78,CC(C)C[C@H](NC(=O)[C@H](CCC(N)=O)NC(=O)[C@H](CC(C)C)NC(=O)[C@H](Cc1c[nH]cn1)NC(=O)[C@H](CC(N)=O)NC(=O)[C@H](CCC(N)=O)NC(=O)[C@H](CCCNC(=N)N)NC(=O)[C@H](CO)NC(=O)[C@@H](N)CCCCN)C(=O)O (H-KSRQNHLQL-OH; N-terminus and C-terminus assumed)
